# Columns and labels:
# A2780 EOC cells = experiment: Caspase-3/7 activity in A2780 cells, wt or MyD88 transfected, carboplatin versus paclitaxel; type: cell-based, human; conditions: 100 μg/ml carboplatin or 2 μM paclitaxel, 48 hours; for caspase-3/7 activity: wildtype A2780
# Description: (§1) Ten μg of protein in a 50 μl total volume was mixed with 50 μl of equilibrated reagents of a caspase assay kit, i.e., the CASPASE GLO™ 3/7 Assay (Promega). After incubating at room temperature for 1 h, luminescence was measured using TD 20/20 Luminometer (Turner Designs, Sunnyvale, Calif.). Blank values were subtracted and fold-increase in activity was calculated based on activity measured from untreated cells. Each sample was measured in triplicate.
# Transfection was performed using a plasmid containing the full-length cDNA (SEQ ID NO:3) of human MyD88 (pUNO-hMyD88, Invivogen), which encodes the amino acid sequence of SEQ ID NO:4. CP70 and A2780 cells were grown in […] surface tissue culture flasks until they reached 50% confluence. 12 μl of the Fugene 6 Transfection reagent was added into 4 ml of serum-free media for each transfection. After 5 minutes of incubation at room temperature, 1 μg of the plasmid pUNO-hMyD88 was added to the serum-free media containing Fugene 6 Transfection Reagent, and the mixtures were incubated at room temperature for another 15 minutes. The growth media in each flask was discarded, and the corresponding Fugene 6-plasmid-serum-free-media mixture was added and the flasks were incubated overnight at 37° C. 5% CO2. The transfection media was replaced with fresh growth media the second day and the cells were allowed to recover for 24 hours post transfection before treatments.
# Applicants also determined whether the expression of MyD88 confers resistance that is specific to paclitaxel. Wildtype (wt) A2780 EOC cells (carboplatin sensitive) and A2780 EOC cells transfected with MyD88 were treated with 100 μg/ml carboplatin or 2 μM paclitaxel for 48 hours. Apoptosis was determined by measuring caspase-3/7 activity.
# MyD88- EOC cells [1] = experiment: Cytokine ELISA (GRO-α, MCP-1, IL-6), MyD88- EOC cells; type: cell-based, human; conditions: increasing concentrations of paclitaxel, 24 h, 48 h, 72 h
# Description: (§2) The concentrations of the IL-6, GRO-α, MCP-1 were evaluated by ELISA, according to the manufacturer's instructions. (R&D Systems, Minneapolis, Minn.)
# (§3) EOC cell lines were treated for 48 h with 10 μg/ml LPS and the levels of GRO-α, MCP-1, and IL-6 were determined. […] Unstimulated MyD88^+ EOC cells constitutively express all the cytokines tested. […] In contrast, unstimulated MyD88^− EOC cells secreted undetectable or low levels of these pro-inflammatory cytokines, which were not affected by TLR-4 ligation with LPS.
# (§4) MyD88^+ and MyD88^− EOC cells were treated with increasing concentrations of paclitaxel for 24 h, 48 h, and 72 h and levels of IL-6 secretion were determined by ELISA.
# MyD88- EOC cell lines = experiment: CASPASE GLO 3/7 apoptosis assay, MyD88- EOC cell lines; type: cell-based, human; conditions: 2 μM paclitaxel, 24 h
# Description: as §1
# (§5) Paclitaxel has been reported to be a potential ligand to TLR-4 (23). […] EOC cells were treated with 2 μM paclitaxel for 24 h and apoptosis was determined by measuring the activity of caspases-3 and -7 using a caspase assay kit CASPASE GLO™ 3/7 Assay.
# MyD88+ EOC cells [2] = experiment: Cytokine microarray (Fast Quant), MyD88+ EOC cells; type: cell-based, human; conditions: 48 h; LPS 10 μg/ml or paclitaxel 20 μM
# Description: (§6) A panel of 10 cytokines, pro and anti-inflammatory, was simultaneously evaluated using the Fast Quant Human II kit (Whatman/Schleicher & Schuell) according to the manufacturer instructions. The signal was detected using the Genepix 4000 microarray reader and the results were analyzed using the Genepix 3.0 software (Whatman/Schleicher & Schuell).
# (§7) To further characterize the effect of paclitaxel and LPS on the secretion of several cytokines and chemokines in MyD88^+ and MyD88^− EOC cells, Applicants used a high throughput microarray system (Whatman/Schleicher & Schull) to measure the levels of IL-6, IL-4, IL-8, IL-12, RANTES, and IFN-γ. Cytokine secretion was measured in the supernatants of EOC cells following 48 h incubation with either LPS (10 μg/ml) or paclitaxel (20 μM).
# A2780 and CP70 EOC cells = experiment: Caspase-3/7 activity in A2780 and CP70 cells, wt or transfected with pUNO-hMyD88; type: cell-based, human; conditions: 48 h
# Description: as §1
# Transfection was performed using a plasmid containing the full-length cDNA (SEQ ID NO:3) of human MyD88 (pUNO-hMyD88, Invivogen), which encodes the amino acid sequence of SEQ ID NO:4. CP70 and A2780 cells were grown in […] surface tissue culture flasks until they reached 50% confluence. 12 μl of the Fugene 6 Transfection reagent was added into 4 ml of serum-free media for each transfection. […]
# Because Applicants observed a positive correlation between MyD88 expression and resistance to paclitaxel-induced apoptosis, their next objective was to determine whether the induction of MyD88 expression in EOC might confer resistance to paclitaxel. […] After 24 h of transfection, the cells were either left untreated or treated with 2 μM paclitaxel for 48 h and caspase-3/7 activity was determined.
# MyD88+ R182 EOC cells = experiment: IL-6 secretion in R182 EOC cells with and without MyD88 RNAi; type: cell-based, human
# Description: EOC cells were transiently transfected with a GFP-expressing plasmid containing silencing RNA (siRNA) directed against MyD88 (psiRNA-hMyD88, Invivogen, San Diego, Calif.). Briefly, 1.5×10^5 cells were seeded in 60 mm dishes and cultured overnight until 40-60% confluent. Cells were then transfected for 18 h with 2 μg of DNA using Fugene 6 Transfection reagent (Roche Applied Science, Indianapolis, Ind.). Ratio of Fugene to DNA was 3:1. Following transfection, cells were allowed to recover in growth media for 24 h prior to treatment.
# In order to confirm that in MyD88^+ EOC cells, the ligation of TLR-4 by either LPS or paclitaxel induces the production of cytokines, Applicants inhibited its expression in MyD88^+ R182 EOC cells using RNA interference technology. […] These findings confirmed that the cytokine response in EOC cells following LPS and paclitaxel treatment involves signaling through MyD88.
# MyD88- EOC cells [3] = experiment: Cytokine microarray (Fast Quant), MyD88- EOC cells; type: cell-based, human; conditions: 48 h; LPS 10 μg/ml or paclitaxel 20 μM
# Description: as §6, §7
# MyD88+ cells = experiment: Western blot of XIAP, pAkt and total Akt in MyD88+ cells; type: cell-based, human
# Source text: Twenty μg protein were denatured in sample buffer (2.5% SDS, 10% glycerol, 5% β-mercapto-ethanol, 0.15 M Tris (pH=6.8) and 0.01% bromophenol blue) and subjected to 12% SDS-PAGE as previously described (17). Antibodies used: rabbit anti-TLR-4 (Santa Cruz Biotechnology, Santa Cruz, Calif., 1:1,000), rabbit anti-MyD88 (eBiosciences, San Diego, Calif., 1:1,000), mouse anti-NF-κB (Santa Cruz Biotechnology, 1:1,000), mouse anti-DNA topoisomerase 1 (BD Biosciences, San Jose, Calif., 1:500) and, rabbit anti-actin (Sigma Chemical Co., 1:10,000). Proteins were visualized using enhanced chemiluminescence (Pierce Biotechnology).
# TLR-4 ligation through NF-κB and inflammatory molecules promotes cell survival by the induction of the expression of anti-apoptotic proteins (24, 25). The expression of X-linked inhibitor of apoptosis (XIAP), a major inhibitor of caspase-3 and 9, and the expression of Akt has been associated with tumor growth and chemoresistance in ovarian cancer cells (26-28). Therefore, Applicants evaluated the expression of XIAP and phosphorylated Akt (pAkt) following paclitaxel treatment in MyD88^+ cells. […] Similarly, XIAP levels increased 2 h post-treatment. In contrast, no change on the levels of total Akt was observed.
# MyD88+ EOC cells [4] = experiment: CELLTITER96 cell viability / proliferation assay, MyD88+ EOC cells; type: cell-based, human; conditions: EOC cells that express MyD88
# Description: Cell viability was evaluated using a cell proliferation assay, i.e., the CELLTITER96® Aqueous One Solution Cell Proliferation Assay (Promega, Madison, Wis.) according to the manufacturer's instructions. The values from the treated cells were compared with the values generated from the untreated cells and reported as percent viability. Each experiment was performed at least three times.
# Once the expression of TLR-4 in EOC samples was established, Applicants evaluated the biological function of this receptor and also evaluated the significance of MyD88 status. EOC cell lines expressing MyD88 (MyD88^+) and those shown to lack MyD88 (MyD88^−) were treated with increasing concentrations of LPS (one of the main ligands for TLR-4) for 24 h and 48 h and cell viability was determined using a cell proliferation assay, i.e., the CELLTITER96® AQueous One Solution Cell Proliferation Assay. […] Thus, LPS induced a time- and dose-dependent increase in cell proliferation in cells expressing MyD88, but not in MyD88− EOC cells. LPS had no effect on viability of OSE cell, which are also negative for MyD88 expression.
# murine macrophages = conditions: cited from earlier work
# MyD88+ EOC cells [5] = experiment: Cytokine ELISA (GRO-α, MCP-1, IL-6), MyD88+ EOC cells; type: cell-based, human; conditions: increasing concentrations of paclitaxel, 24 h, 48 h, 72 h; dose- and time-dependent, p<0.01
# Description: as §2, §3, §4
# MyD88+ EOC cells [6] = experiment: CASPASE GLO 3/7 apoptosis assay, MyD88+ EOC cells; type: cell-based, human; conditions: 2 μM paclitaxel, 24 h
# Description: as §1, §5
# normal OSE cells = experiment: CASPASE GLO 3/7 apoptosis assay, normal OSE cells; type: cell-based; conditions: 2 μM paclitaxel, 24 h
smiles,measurement,setting,value
N.N.O=C([O-])C1(C(=O)[O-])CCC1.[Pt+2] [carboplatin],sensitivity (apoptosis by caspase-3/7 activity),A2780 EOC cells; A2780 transfected with MyD88,retained its sensitivity
same,caspase-3/7 activity,A2780 EOC cells,significant increase
CC(=O)O[C@H]1C(=O)[C@@]2(C)[C@H]([C@H](OC(=O)c3ccccc3)[C@]3(O)C[C@H](OC(=O)[C@H](O)[C@@H](NC(=O)c4ccccc4)c4ccccc4)C(C)=C1C3(C)C)[C@]1(OC(C)=O)CO[C@@H]1C[C@@H]2O [paclitaxel],IL-6 levels,MyD88- EOC cells [1],did not affect
same,caspase-3/7 activity,MyD88- EOC cell lines,significant increase
same,"secretion of IL-4, IL-12 and IFN-γ",MyD88+ EOC cells [2],neither MyD88^+ nor MyD88^− EOC cells secreted detectable levels
same,"secretion of IL-6, IL-8 and RANTES",MyD88+ EOC cells [2],increased secretion
same,caspase-3/7 activity,"A2780 and CP70 EOC cells; cells transfected with pUNO-hMyD88, 2 μM paclitaxel",no changes
same,caspase-3/7 activity,"A2780 and CP70 EOC cells; wt cells, 2 μM paclitaxel",significant increase
same,IL-6 secretion,MyD88+ R182 EOC cells; R182 cells after inhibition of MyD88 expression by RNAi,decreased IL-6 secretion
same,IL-6 production,"MyD88+ R182 EOC cells; wild type R182 cells, LPS 10 μg/ml or paclitaxel 2 μM",high levels of IL-6
same,"secretion of IL-4, IL-12 and IFN-γ",MyD88- EOC cells [3],neither MyD88^+ nor MyD88^− EOC cells secreted detectable levels
same,"secretion of IL-6, IL-8 or RANTES",MyD88- EOC cells [3],neither constitutive secretion nor LPS- or paclitaxel-induced
same,XIAP levels,MyD88+ cells; 2 h post-treatment,increased
same,phosphorylated Akt (pAkt),MyD88+ cells; 4 h after treatment,significant increase
same,levels of total Akt,MyD88+ cells; after paclitaxel treatment,no change
same,proliferation in culture upon TLR-4 ligation,MyD88+ EOC cells [4],proliferate in culture
same,"secretion of inflammatory cytokines, including TNFα, IL-6 and IL-8",murine macrophages; TLR-4 and MyD88 dependent,induces the secretion of inflammatory cytokines
same,macrophage activation,murine macrophages; studies by Ding et al,activates murine macrophages
same,IL-6 production,MyD88+ EOC cells [5],significant increase
same,caspase-3/7 activity,MyD88+ EOC cells [6],no significant change
same,caspase activity,normal OSE cells,Significant increase
same,caspase-3/7 activity,A2780 EOC cells,significant increase
